According to EP0675900B1, “ANTIBIOTICS GE 37468 A, B AND C” (Biosearch Italia S.p.A., priority 1992, dated 1994):

How the values were obtained:
[1] = system: gram positive bacteria and gram positive as well as gram negative anaerobes; assay: Minimal inhibitory concentrations (MIC) by broth microdilution, in vitro antimicrobial activity; assay type: cell-based; details: summary in words of the in vitro spectrum; the MIC values of Table IV are printed only as an image
[2] = system: Staphylococcus aureus Smith; assay: Experimental septicemia in mice; assay type: in vivo, CD1 mice; details: iv, 168 h, mice infected intraperitoneally with 10^6 CFU/mouse S. aureus Smith, compound given intravenously once immediately after infection, Spearman and Kaerber method from survival at day 7
Description: The antimicrobial activity of antibiotic GE37468A was also confirmed in experimental septicemia in mice.
Groups of five CD1 mice of both sexes (Charles River, average weight 18-22 g) were infected intraperitoneally with 10^6 CFU/mouse of Staphylococcus aureus Smith suspended in 0.5 ml of 5% bacteriological mucin (Difco). The test compound was administered intravenously once, immediately after infection, in a sterile solution containing 10% dimethylsulfoxide, 10% Cremophor EL®, 20% 0.07 M phosphate buffer (pH 8), 60% glucose solution (5%).

[3] = Hydrolytic degradation in acidic aqueous buffer; assay type: physicochemical; details: kept for 6 to 18 hours in an aqueous buffer solution having a pH value between 3 and 4
Description: Antibiotics GE37468B and GE37468C seem to derive from antibiotic GE37468A via hydrolytic degradation. […] The physico-chemical characteristics of these two products are as follows: […]

C=C(NC(=O)c1csc(-c2ccc3c(n2)-c2csc(n2)-c2csc(n2)C2C(C)CC(O)N2C(=O)C(Cc2ccc(O)cc2)NC(=O)C2CSC(=N2)C(Cc2ccccc2)NC(=O)c2csc(n2)C(CC(N)=O)NC(=O)c2nc-3oc2C)n1)C(N)=O (centres unmarked) [GE37468C]
antimicrobial activity [1]: mainly active against gram positive bacteria and gram positive as well as gram negative anaerobes

Cc1oc2nc1C(=O)NC(CC(N)=O)c1nc(cs1)C(=O)NC(Cc1ccccc1)C1=NC(CS1)C(=O)NC(Cc1ccc(O)cc1)C(=O)N1C(O)CC(C)C1c1nc(cs1)-c1nc(cs1)-c1nc(-c3nc(C(N)=O)cs3)ccc1-2 (centres unmarked) [GE37468B]
antimicrobial activity [1]: mainly active against gram positive bacteria and gram positive as well as gram negative anaerobes

C=C(NC(=O)C(=C)NC(=O)c1csc(-c2ccc3c(n2)-c2csc(n2)-c2csc(n2)C2C(C)CC(O)N2C(=O)C(Cc2ccc(O)cc2)NC(=O)C2CSC(=N2)C(Cc2ccccc2)NC(=O)c2csc(n2)C(CC(N)=O)NC(=O)c2nc-3oc2C)n1)C(=O)O (centres unmarked) [GE37468A]
ED50 [2]: 3.2 mg/kg | stability in aqueous buffer solution (hydrolytic degradation) [3]: yields substantial amounts of both antibiotic GE37468B and GE37468C | antimicrobial activity [1]: mainly active against gram positive bacteria and gram positive as well as gram negative anaerobes
